The results in this text go back to ChEMBL document CHEMBL3392922, “MMV box screening in the Dd2 P. falciparum strain”.

The test system of this test is Plasmodium falciparum. As to the kind of experiment: MMV: IC50 determined against P. falciparum Dd2-luc strain using a Malaria Sybr Green I Fluorescence assay. Starting conditions were 1% trophozoite synchronised parasites at 2% haematocrit. Fluorescence detection completed after 48hr incubation at 37 degrees C under 1% O2, 3% CO2 and balance N2. The class given is functional, organism-based. Particulars: Dd2, 48 h.
Take `COc1ccc(CCN2CCC(CN(C)Cc3cnn(-c4ccccc4)c3)CC2)cc1`: the IC50 is 2680 nM. Molecule `COc1ccc(C(=O)Nc2ccc(Cl)cc2C(=O)Nc2ccncc2)cc1` returned a 50% inhibitory concentration (IC50) of 810 nM.

The molecule `CC1CC2=C(CC1CNCCCN(C)C)C(C)(C)CCC2` (stereo not drawn) yielded an IC50 of 476 nM. Consider `O=C(Nc1cccc(-c2nc3ccccc3[nH]2)c1)c1cccc(NC(=O)c2ccco2)c1`, for which half-maximal inhibition (IC50) required 506 nM.

As to `COc1cccc(Nc2nc(NCCO)c3ccccc3n2)c1`, half-maximal inhibition (IC50) was put at 885 nM. In turn, `c1ccc(-c2ccc(-c3nc4ccccc4[nH]3)cc2)cc1` had an IC50 of 2000 nM.

`CCOc1ccccc1NC(=O)CN1CCN(C(=O)c2ccco2)CC1`: the IC50 was 2900 nM. `O=C(NC1CCCC1)c1ccc(N2CCC(NCc3cccc(C(F)(F)F)c3)CC2)cc1`: it took 468 nM to reach half-maximal inhibition (IC50). Turning to `COc1ccc(NC(=O)C2c3ccccc3C(=O)N(CC(C)C)C2c2cccs2)cc1` (stereo not drawn), it took 1260 nM to reach half-maximal inhibition (IC50). In the case of `OC(CNCC1CCCO1)Cn1c2ccc(Cl)cc2c2cc(Cl)ccc21` (stereo not drawn), the IC50 is 734 nM.

`CCOc1c(Cl)cc(CNC(C)C(O)c2ccccc2)cc1OC` (stereo not drawn) returned an IC50 of 1360 nM. The molecule `CCN(CC)CCNc1ncnc2c1[nH]c1ccc(Cl)cc12` showed an IC50 of 373 nM.

In turn, `COc1ccccc1CNC(=O)C1c2ccccc2C(=O)N(CC(C)C)C1c1cccs1` (stereo not drawn) displayed a concentration for half-maximal inhibition (IC50) of 1140 nM. With `CCCCCCc1cc2cc(-c3nc4ccccc4[nH]3)c(=Nc3ccccc3C)oc2cc1O` the figure was 5720 nM; with `O=C(NCCCN1CCC(N2CCCCC2)CC1)C1=Cc2cc(Br)ccc2OC1`, 965 nM. With `CCOc1cc2c(cc1OCC)C(c1cc(OC)c(O)cc1Cl)NCC2` (stereo not drawn), the IC50 stood at 120 nM. In the case of `COc1cccc(C2(C)Nc3ccccc3-c3nc4ccccc4n32)c1` (stereo not drawn), the IC50 was 1410 nM.

The molecule `CN1CCN(c2c3c(c(C#N)c4nc5ccccc5n24)CCC3)CC1` returned an IC50 of 1490 nM. For `Brc1ccc(Nc2nc3ccccc3nc2Nc2ccc(Br)cc2)cc1`, inhibition was half-maximal at 1510 nM (IC50). For `COc1nc(Nc2ccc(C(C)C)cc2)nc(OC)n1`, the IC50 is 365 nM. To `CC(C)(C)C(=O)Nc1ccc(C(=O)Nc2cccc(-c3nc4ccccc4[nH]3)c2)cc1` belongs 753 nM. With `OC(Cn1nnc2ccccc21)Cn1c2ccc(Br)cc2c2cc(Br)ccc21` (stereo not drawn) the figure was 2030 nM. As to `O=C(Nc1ccc(Cl)cc1)N1CCN(c2ccc3nncn3n2)CC1`, half-maximal inhibition (IC50) required 1040 nM. Consider `CN(C)c1ccc(-c2nc3cc(N)ccc3[nH]2)cc1`, for which the IC50 turned out to be 1240 nM. `O=C(Nc1ccccc1O)c1ccc(-c2ccc(Cl)cc2Cl)o1` came in with a concentration for half-maximal inhibition (IC50) of 2990 nM. On to `CCc1ccc(Nc2cc(C)nc3nc(C)nn23)cc1`, for which the half-maximal inhibitory concentration (IC50) worked out at 691 nM. With `OC(CNCc1ccccc1)Cn1c2ccccc2c2ccccc21` (stereo not drawn) the figure was 1100 nM; with `COc1ccc(N2CCN(C(CNC(=O)C3CCCCC3)c3ccc4c(c3)OCO4)CC2)cc1` (stereo not drawn), 569 nM; with `C=CCc1c(C)nc2ccccc2c1O`, 1480 nM. Take `CC(C)c1ccc(CNCC(O)c2ccccc2)cc1` (stereo not drawn): it took 1080 nM to reach half-maximal inhibition (IC50).

`Cc1ccc(CSCc2ccc(C(=O)NC3CC3)o2)cc1` showed an IC50 of 550 nM.

`COc1ccc(C(=O)NC(c2ccccc2Cl)c2cc(Cl)c3cccnc3c2O)cc1` (stereo not drawn) registered a concentration for half-maximal inhibition (IC50) of 978 nM. In turn, `CCc1c(C)c(=N)c2ccccc2n1C` showed a half-maximal inhibitory concentration (IC50) of 2770 nM.

`COCCNCC(O)Cn1c2ccc(Cl)cc2c2cc(Cl)ccc21` (stereo not drawn) returned an IC50 of 652 nM. With `Cc1cc(NC(=O)c2cccc(C(F)(F)F)c2)n(-c2nc(-c3ccc4c(c3)OCO4)cs2)n1`, the IC50 was found to be 2180 nM. To `Cc1ccc2cc3c(N)c4c(C)ccc(C)c4nc3nc2c1` belongs 1440 nM.

The molecule `O=C(Nc1cccc(C(F)(F)F)c1)c1cc(Cl)ccc1O` had a half-inhibitory concentration (IC50) of 1090 nM. For `CC(C)OCc1cc(CN2CCN(c3cccc(Cl)c3)CC2)c(O)c2ncccc12`, half-maximal inhibition (IC50) was put at 573 nM. With `COc1ccc(C(=O)C(CCC(CNC(C)(C)C)C(=O)c2ccc(OC)cc2)CNC(C)(C)C)cc1` (stereo not drawn) the figure was 1600 nM. As to `COc1cc(SC)ccc1C(=O)N1CCCC(C)C1` (stereo not drawn), the IC50 was 3950 nM. `O=C(Nc1ccc(CN2CCOCC2)cc1)c1ccc(-c2cc(Cl)ccc2Cl)o1` had a concentration for half-maximal inhibition (IC50) of 1740 nM. The molecule `Oc1ccc(-c2nc(-c3ccc4oc5ccc(-c6[nH]c(-c7ccc(O)cc7)nc6-c6ccccc6)cc5c4c3)c(-c3ccccc3)[nH]2)cc1` came in with an IC50 of 683 nM. With `Cc1ccc(Nc2nc(-c3ccccn3)cs2)cc1` the figure was 479 nM; with `O=C(Nc1ccc(N2CCCCC2)c(Cl)c1)c1ccc(Br)o1`, 559 nM; with `Cn1c(=O)c2cc(C(=O)NCCCN3CCCCCC3)sc2c2ccccc21`, 366 nM. The molecule `CCOc1cc2c(cc1OCC)C(c1cc(C)c(O)c(C)c1)NCC2` (stereo not drawn) had a concentration for half-maximal inhibition (IC50) of 654 nM.

On to `CN1CCN(c2ncnc3c2[nH]c2ccc(Cl)cc23)CC1`, for which the IC50 came to 1180 nM.

Consider `CCN(CC)c1ccc(NC(=O)c2cccs2)cc1`, for which 514 nM corresponded to half-maximal inhibition (IC50). Regarding `Clc1ccc2c(N3CCCC3)ccnc2c1`, the IC50 amounted to 1290 nM. In turn, `O=C(NC1CCN(Cc2ccccc2)CC1)c1cc(C(=O)NC2CCN(Cc3ccccc3)CC2)cc(C(=O)NC2CCN(Cc3ccccc3)CC2)c1` came in with a half-maximal inhibitory concentration (IC50) of 264 nM. With `O=C1c2ccccc2C2=Nc3ccccc3SC(c3cccc(F)c3)C12` (stereo not drawn), the IC50 turned out to be 766 nM. `COc1cccc(C=Cc2nc(=O)c3ccccc3o2)c1OC` came in with an IC50 of 426 nM. Molecule `Oc1ccccc1CN1CCC2(CCCN(Cc3ccccc3F)C2)C1` (stereo not drawn) came in with an IC50 of 647 nM.

`CCN1CCCC1CNc1[nH]cnc2c3cc(Cl)ccc3nc1-2` (stereo not drawn) had a half-inhibitory concentration (IC50) of 1450 nM. `Oc1c(CN2CCN(c3ccccc3F)CC2)cc(Br)c2cccnc12` gave a 50% inhibitory concentration (IC50) of 1340 nM.

As for `COc1ccc(-c2cc3c(nn2)-c2ccccc2C3=O)cc1`, half-maximal inhibition (IC50) required 731 nM. With `O=c1c2c([nH]c3ccccc13)CCCC2` the figure was 876 nM; with `CCCCCC(=O)N1c2ccccc2N=C2CC(c3ccc(OC)c(OC)c3)CC(O)=C2C1c1ccc(C(F)(F)F)cc1` (stereo not drawn), 179 nM; with `COc1ccc(CCn2c(=N)c(C(=O)NCc3cccnc3)cc3c(=O)n4cccc(C)c4nc32)cc1`, 272 nM. With `COc1ccc(OC)c(C2C3=C(CC(C)(C)CC3=O)N(c3ccc(Cl)c(Cl)c3)C3=C2C(=O)CC(C)(C)C3)c1` the figure was 2980 nM; with `COc1cc2c(cc1OC)C1=NNC(=O)C1=NC(C)(C)C2`, 732 nM; with `CC(C)(C)c1ccc2c(c1)CN(Cc1ccc(Cl)cc1)CO2`, 196 nM.

In turn, `CN1CCN(c2ccc(Nc3c4ccccc4nc4ccccc34)cc2)CC1` gave a concentration for half-maximal inhibition (IC50) of 1600 nM.

For the molecule `COc1ccc(-c2nonc2NC(=O)c2cccc(C)c2)cc1OC`, the IC50 amounted to 904 nM. In turn, `O=c1nc(C=Cc2ccc(Br)cc2)oc2ccccc12` displayed an IC50 of 5930 nM. In the case of `O=C(Nc1ccc(Cl)cc1C(=O)Nc1ccncc1)c1ccc(Cl)cc1Cl`, the IC50 came to 866 nM. `COc1cccc(O)c1CN1CCC2(CCCN(Cc3ccc(F)cc3)C2)C1` (stereo not drawn): the IC50 was determined as 502 nM. On to `Cc1cc(N(C)C)nc(Nc2ccc(NC(=O)Nc3ccccc3)cc2)n1`, for which the concentration for half-maximal inhibition (IC50) came out at 973 nM.

Take `COc1cc(CNCCc2ccc(Cl)cc2)cc(OC)c1O`: the midpoint of inhibition, the IC50, lay at 1870 nM. To `Cc1ccc(Cn2c(N3CCC(C(=O)NCc4cccs4)CC3)nc3ccccc32)cc1` belongs 826 nM; to `Cc1ccc(-c2cc3nc4c(c(O)n3n2)CCCC4)cc1`, 1780 nM.

Consider `CCC(O)c1ccc(Br)cc1NC(=O)c1cccc(Cl)c1` (stereo not drawn), for which 701 nM corresponded to half-maximal inhibition (IC50).

For `O=C(NC1CCN(Cc2ccccc2)CC1)c1cc(-c2cccnc2)nc2ccc(Cl)cc12`, the IC50 is 1220 nM. With `Cc1ccc(NC(=O)Nc2cccc(Cl)c2)cc1F`, half-maximal inhibition (IC50) required 1210 nM.

`CN(C)c1ccc(C(O)(c2ccc(N(C)C)cc2)c2ccc(N(C)C)cc2)cc1` [METHYLROSANILINE] registered an IC50 of 218 nM.

`CC1CN(C(=O)c2sc3ccccc3c2Cl)CC(C)O1` (stereo not drawn) displayed a half-maximal inhibitory concentration (IC50) of 104 nM.

`OC(CNC1CCCCC1)Cn1c2ccccc2c2ccccc21` (stereo not drawn): half-maximal inhibition (IC50) required 278 nM. Molecule `COc1ccccc1N1CCN(C(CNS(=O)(=O)c2ccc(Cl)cc2)c2cccnc2)CC1` (stereo not drawn) registered an IC50 of 913 nM. The molecule `COc1ccc(-c2nonc2NC(=O)c2cccc(Cl)c2)cc1OC` displayed an IC50 of 1330 nM.

`COc1cccc(-c2nn(C)c3sc(C(=O)NCCN4CCN(c5ccccc5F)CC4)cc23)c1`: the 50% inhibitory concentration (IC50) came to 1910 nM. The molecule `Oc1ccc(C(=C(Cl)Cl)c2ccc(O)cc2)cc1` returned a concentration for half-maximal inhibition (IC50) of 1910 nM.

`COc1ccc(CNC(=O)c2cc3c(=O)n4ccccc4nc3n(CCc3ccccc3)c2=N)cc1` yielded a concentration for half-maximal inhibition (IC50) of 1230 nM. To `COc1cccc(C(=O)NC(c2ccc(C)cc2)c2cc(Cl)c3cccnc3c2O)c1` (stereo not drawn) belongs 940 nM; to `O=C(CSc1ccc2nnc(-c3cccc(F)c3)n2n1)Nc1ccc2c(c1)OCO2`, 541 nM; to `Cc1cccc(Nc2nc(N)c3ccccc3n2)c1`, 3500 nM. With `CCOC(=O)c1cnc2ccc(OC)cc2c1Nc1ccc(N2CCN(C)CC2)cc1` the figure was 769 nM; with `CC(C)CCNCC(O)Cn1c2ccccc2c2ccccc21` (stereo not drawn), 907 nM.

`c1ccc2c(NCCCCCCNc3c4c(nc5ccccc35)CCCC4)c3c(nc2c1)CCCC3` returned an IC50 of 545 nM. With `Cc1sc(NC(=O)c2ccco2)c(C(c2cccnc2)N2CCC(Cc3ccccc3)CC2)c1C` (stereo not drawn) the figure was 1340 nM; with `CN(C)CCNc1cc(-c2ccccc2)nc2ccccc12`, 3650 nM; with `CCOC(=O)C1CCN(C(=O)CN2C(=O)c3ccccc3C2c2c[nH]c3ccccc23)CC1` (stereo not drawn), 512 nM. For `CC1CCN(Cc2ccc(NC(=O)c3cc4ccc5cccnc5c4[nH]3)cc2)CC1`, half-maximal inhibition (IC50) was put at 242 nM.

The molecule `COc1cc2cc(C(=O)Nc3ccccc3)c(N)nc2cc1OC` yielded a half-maximal inhibitory concentration (IC50) of 884 nM. `COc1cc2c3cc1Oc1c(OC)c(OC)cc4c1C(Cc1ccc(O)c(c1)Oc1ccc(cc1)CC3N(C)CC2)N(C)CC4` (stereo not drawn) displayed an IC50 of 692 nM. For `CCOc1c(Cl)cc(CNCC(O)c2ccccc2)cc1OC` (stereo not drawn), half-maximal inhibition (IC50) required 1300 nM. In turn, `CC(=O)c1ccc(NC(=O)CSc2nc(-c3ccccc3Cl)ns2)cc1` showed an IC50 of 1690 nM.

On to `CCC(C)NCC(O)(c1ccc(Cl)cc1)c1ccc(Cl)cc1` (stereo not drawn), for which half-maximal inhibition (IC50) was put at 551 nM. To `COCCNC(=O)c1ccc(OC2CCN(Cc3ccc(F)c(F)c3)CC2)c(Cl)c1` belongs 754 nM.
